In US20240216304A1, “CAPSAICIN AND TRPV1 MODULATOR COMPOSITIONS AND METHODS OF USE THEREOF” (The Children's Hospital of Philadelphia, priority 2020, published 2024):

Key:
TRPV1 = target: T1, TRPV1 (Homo sapiens, UniProt Q8NER1); assay: Capsaicinoid-induced TRPV1 signaling in DRG neurons, Fluo-8 calcium imaging; assay type: cell-based; details: for treated neurons responding: agonist alone
T1 construct: TRPV1 primary signaling in Human dorsal root ganglia (DRG) neurons in culture; endogenous in cells; host or cells: human dorsal root ganglia (DRG) neurons in culture
T1 sequence (Q8NER1 whole entry): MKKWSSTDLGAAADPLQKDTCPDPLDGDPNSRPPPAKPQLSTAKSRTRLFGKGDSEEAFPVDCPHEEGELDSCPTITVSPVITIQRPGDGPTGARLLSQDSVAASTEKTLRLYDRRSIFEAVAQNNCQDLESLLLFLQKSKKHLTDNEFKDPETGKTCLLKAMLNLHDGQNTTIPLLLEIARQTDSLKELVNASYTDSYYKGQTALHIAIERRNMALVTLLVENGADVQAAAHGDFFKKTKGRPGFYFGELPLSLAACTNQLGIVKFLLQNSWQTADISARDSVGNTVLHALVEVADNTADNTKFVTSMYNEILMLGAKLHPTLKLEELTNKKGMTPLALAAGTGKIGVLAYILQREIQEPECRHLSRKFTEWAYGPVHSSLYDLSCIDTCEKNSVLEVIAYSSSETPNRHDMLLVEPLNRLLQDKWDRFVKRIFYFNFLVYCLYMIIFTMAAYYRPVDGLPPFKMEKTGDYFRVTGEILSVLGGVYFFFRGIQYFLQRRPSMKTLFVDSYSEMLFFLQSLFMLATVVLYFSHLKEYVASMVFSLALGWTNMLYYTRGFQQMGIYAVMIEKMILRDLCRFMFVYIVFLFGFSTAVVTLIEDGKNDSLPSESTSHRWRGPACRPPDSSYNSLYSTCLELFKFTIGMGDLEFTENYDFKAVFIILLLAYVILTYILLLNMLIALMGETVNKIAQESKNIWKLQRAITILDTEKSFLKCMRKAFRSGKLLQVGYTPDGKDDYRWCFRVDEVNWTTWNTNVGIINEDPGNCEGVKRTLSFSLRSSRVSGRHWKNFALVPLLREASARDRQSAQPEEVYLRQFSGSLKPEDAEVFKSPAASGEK
From the text: The aim of this study was to evaluate the effects of oleic acid on antagaonizing capsaicinoid-induced TRPV1 primary signaling in Human dorsal root ganglia (DRG) neurons in culture. Human DRG neurons were studied in a perfusion system using the calcium dye Fluo-8. Detection of intracellular calcium transients was accomplished by measuring the changes in the fluorescence intensity of the Fluo-8 calcium indicator upon excitation at 480 nm and recording of the emitted signal at 520 nm using a pcoEDGE sCMOS camera mounted on an inverted microscope (Olympus IX71). The following protocol was utilized to study the effects of the fatty acids on capsaicin and DHC-stimulated calcium currents.

Diabetic Mice = assay: Capsaicinoid-fatty acid combinations on glucose tolerance and insulin sensitivity in diabetic mice; assay type: in vivo; details: administered in the absence of OA (capsaicin 5 mg/kg, DHC 1 mg/kg); groups discontinued after first 72 hours (6 doses)
Description: Eighty-four male db db mice (BKS. CG-Dock7m+/+LeprdbJ) are randomized at 8 weeks of age to produce seven equivalent groups (n=12/group) with respect to 4-hour fasting glucose and body weight. Treatment groups are as follow: Control (untreated); Capsaicin (5 mg/kg)+OA (615 mg/kg); DHC (1 mg/kg)+OA (615 mg/kg); capsaicin (10 mg/kg)+OA (615 mg/kg); DHC (10 mg/kg)+OA (615 mg/kg); capsaicin (5 mg/kg); DHC (1 mg/kg). Animals are administered the formulations via oral gavage in a volume of 5 mL/kg) twice daily for 28 days. Blood glucose is measured following a four hour fast on days 0, 7, 14, 21 and 28. On day 28, an oral glucose tolerance test (OGTT) is performed following a four-hour fast. Glucose (1.2 g/kg) is dosed at […], and glucose and insulin are measured at t=−60 minutes, 0, 15, 30, 60, 120, 180 and 240 minutes.

SMILES | maximal calcium (ΔF/F0) signal (TRPV1; DHC as agonist, with oleic acid administration) | neurons responding (TRPV1; DHC as agonist, with oleic acid administration (DHC alone 59%)) [%] | neurons responding (TRPV1; capsaicin as agonist, with oleic acid administration (capsaicin alone 74%)) [%] | tolerability (Diabetic Mice) | treated neurons responding (TRPV1) [%] | maximal calcium (ΔF/F0) signal (TRPV1; DHC alone)
CCCCCCCC/C=C\CCCCCCCC(=O)O [oleic acid] | 2.81 | 38 | 51 |  |  | 
COc1cc(CNC(=O)CCCC/C=C/C(C)C)ccc1O [capsaicin, (6E)-N-[(4-Hydroxy-3-methoxyphenyl)methyl]-8-methylnon-6-enamide] |  |  |  | poorly tolerated | 74 | 
COc1cc(CNC(=O)CCCCCCC(C)C)ccc1O [DHC, dihydrocapsaicin] |  |  |  | poorly tolerated | 59 | 4.57
